≈ marks a conversion by molar mass, not a printed value.

The test system of the test is SPNE 9912. The test can be described thus: Minimum inhibitory concentration (MIC) by agar dilution. The format is cell-based. The note with it: Streptococcus pneumoniae, lowest concentration of drug that inhibits visible growth of the organism, strain SPNE 9912, read-out: Antibacterial Activity, Minimum Inhibitory Concentration (MIC μg/mL) SPNE 9912. The text has this:
Compounds of this invention have useful activity against a variety of organisms. The in vitro activity of compounds of this invention can be assessed by standard testing procedures such as the determination of minimum inhibitory concentration (MIC) by agar dilution as described in “Approved Standard. Methods for Dilution Antimicrobial Susceptibility Tests for Bacteria That Grow Aerobically”, 3rd. ed., published 1993 by the National Committee for Clinical Laboratory Standards, Villanova, Pa., USA. Minimum inhibitory concentration (MIC) refers to lowest concentration of drug (μg/mL) that inhibits visible growth of the organism. “- -” refers to the activity data is not available.
As for `O=C1O[C@@H](CNC(=O)C(F)(F)F)CN1c1ccc(C2C=CSCC2)c(F)c1` (stereo partly drawn) [Example 1, N-[[(5S)-3-[4-(3,4-dihydro-2H-thiopyran-4-yl)-3-fluorophenyl]-2-oxo-5-oxazolidinyl]methyl]-2,2,2-trifluoroacetamide], the MIC came to 2 µg/mL (≈ 4.95 µM). For `CC(=O)NC[C@H]1CN(c2ccc(C3C=CSCC3)c(F)c2)C(=O)O1` (stereo partly drawn) [Example 2, N-[[(5S)-3-[4-(3,4-dihydro-2H-thiopyran-4-yl)-3-fluorophenyl]-2-oxo-5-oxazolidinyl]methyl]acetamide], the MIC was found to be 1 µg/mL (≈ 2.85 µM). On to `CC(=S)NC[C@H]1CN(c2ccc(C3C=CSCC3)c(F)c2)C(=O)O1` (stereo partly drawn) [Example 3, N-[[(5S)-3-[4-(3,4-dihydro-2H-thiopyran-4-yl)-3-fluorophenyl]-2-oxo-5-oxazolidinyl]methyl]ethanethioamide], for which the MIC was 0.5 µg/mL (≈ 1.36 µM).

In the case of `CC(=O)NC[C@H]1CN(c2ccc(C3C=C[S+]([O-])CC3)c(F)c2)C(=O)O1` (stereo partly drawn) [Example 4, N-[[(5S)-3-[4-(3,4-dihydro-1-oxido-2H-thiopyran-4-yl)-3-fluorophenyl]-2-oxo-5-oxazolidinyl]methyl]acetamide], the MIC amounted to 1 µg/mL (≈ 2.73 µM). The result for `CC(=O)NC[C@H]1CN(c2ccc(C3C=CS(=O)(=O)CC3)c(F)c2)C(=O)O1` (stereo partly drawn) [Example 5, N-[[(5S)-3-[4-(3,4-Dihydro-1,1-dioxido-2H-thiopyran-4-yl)-3-fluorophenyl]-2-oxo-5-oxazolidinyl]methyl]acetamide] reads 0.25 µg/mL (≈ 0.654 µM); that for `CC(=S)NC[C@H]1CN(c2ccc(C3C=C[S+]([O-])CC3)c(F)c2)C(=O)O1` (stereo partly drawn) [Example 6, N-[[(5S)-3-[4-(3,4-dihydro-1-oxido-2H-thiopyran-4-yl)-3-fluorophenyl]-2-oxo-5-oxazolidinyl]methyl]ethanethioamide], 0.25 µg/mL (≈ 0.654 µM); that for `CC(=O)NC[C@H]1CN(c2cc(F)c(N3C=CS(=O)(=O)CC3)c(F)c2)C(=O)O1` [Example 8, N-[[(5S)-3-[4-(2,3-dihydro-1,1-dioxido-4H-1,4-thiazin-4-yl)-3,5-difluorophenyl]-2-oxo-5-oxazolidinyl]methyl]acetamide], 0.5 µg/mL (≈ 1.25 µM).

On to `O=C(NC[C@H]1CN(c2ccc(C3C=CS(=O)(=O)CC3)c(F)c2)C(=O)O1)C(F)F` (stereo partly drawn) [Example 9, N-[[(5S)-3-[4-(3,4-dihydro-1,1-dioxido-2H-thiopyran-4-yl)-3-fluorophenyl]-2-oxo-5-oxazolidinyl]methyl]-2,2-difluoroacetamide], for which the MIC was determined as 0.5 µg/mL (≈ 1.2 µM). In the case of `O=C1O[C@@H](CNC(=S)C(F)F)CN1c1ccc(C2C=CS(=O)(=O)CC2)c(F)c1` (stereo partly drawn) [Example 10, N-[[(5S)-3-[4-(3,4-dihydro-1,1-dioxido-2H-thiopyran-4-yl)-3-fluorophenyl]-2-oxo-5-oxazolidinyl]methyl]-2,2-difluoroethanethioamide], the MIC was determined as 0.25 µg/mL (≈ 0.575 µM). The result for `CC(=O)NC[C@H]1CN(c2cc(F)c(C3C=CS(=O)(=O)CC3)c(F)c2)C(=O)O1` (stereo partly drawn) [Example 20, N-[[(5S)-3-[4-(3,4-dihydro-1,1-dioxido-2H-thiopyran-4-yl)-3,5-difluorophenyl]-2-oxo-5-oxazolidinyl]methyl]acetamide] reads 1 µg/mL (≈ 2.5 µM); that for `O=C1O[C@@H](CNC(=S)C(F)F)CN1c1ccc(N2C=CS(=O)(=O)CC2)c(F)c1` [Example 21, N-[[(5S)-3-[4-(2,3-dihydro-1,1-dioxido-4H-1,4-thiazin-4-yl)-3-fluorophenyl]-2-oxo-5-oxazolidinyl]methyl]-2,2-difluoroethanethioamide], 0.25 µg/mL (≈ 0.574 µM).

With `O=C(NC[C@H]1CN(c2ccc(N3C=CS(=O)(=O)CC3)c(F)c2)C(=O)O1)C(Cl)Cl` [Example 22, 2,2-dichloro-N-[[(5S)-3-[4-(2,3-dihydro-1,1-dioxido-4H-1,4-thiazin-4-yl)-3-fluorophenyl]-2-oxo-5-oxazolidinyl]methyl]acetamide], the MIC came out at 0.25 µg/mL (≈ 0.553 µM).

In the case of `O=C(NC[C@H]1CN(c2ccc(N3C=CS(=O)(=O)CC3)c(F)c2)C(=O)O1)C(F)F` [Example 23, N-[[(5S)-3-[4-(2,3-dihydro-1,1-dioxido-4H-1,4-thiazin-4-yl)-3-fluorophenyl]-2-oxo-5-oxazolidinyl]methyl]-2,2-difluoroacetamide], the MIC came out at 0.5 µg/mL (≈ 1.19 µM). Take `O=C1O[C@@H](CNC(=S)C(F)F)CN1c1ccc(N2C=CS(=O)(=O)CC2)cc1` [Example 24, N-[[(5S)-3-[4-(2,3-dihydro-1,1-dioxido-4H-1,4-thiazin-4-yl)phenyl]-2-oxo-5-oxazolidinyl]methyl]-2,2-difluoroethanethioamide]: the MIC turned out to be 0.5 µg/mL (≈ 1.2 µM). As for `O=C(NC[C@H]1CN(c2ccc(N3C=CS(=O)(=O)CC3)cc2)C(=O)O1)C(Cl)Cl` [Example 25, 2,2-dichloro-N-[[(5S)-3-[4-(2,3-dihydro-1,1-dioxido-4H-1,4-thiazin-4-yl)phenyl]-2-oxo-5-oxazolidinyl]methyl]acetamide], the MIC is 1 µg/mL (≈ 2.3 µM). With `O=C(NC[C@H]1CN(c2ccc(N3C=CS(=O)(=O)CC3)cc2)C(=O)O1)C(F)F` [Example 26, N-[[(5S)-3-[4-(2,3-dihydro-1,1-dioxido-4H-1,4-thiazin-4-yl)phenyl]-2-oxo-5-oxazolidinyl]methyl]-2,2-difluoroacetamide], the MIC worked out at 1 µg/mL (≈ 2.49 µM). The figure for `O=C1O[C@@H](CNC(=S)C(F)F)CN1c1cc(F)c(N2C=CS(=O)(=O)CC2)c(F)c1` [Example 27, N-[[(5S)-3-[4-(2,3-dihydro-1,1-dioxido-4H-1,4-thiazin-4-yl)-3,5-difluorophenyl]-2-oxo-5-oxazolidinyl]methyl]-2,2-difluoroethanethioamide] is 0.25 µg/mL (≈ 0.551 µM); for `O=C(NC[C@H]1CN(c2cc(F)c(N3C=CS(=O)(=O)CC3)c(F)c2)C(=O)O1)C(Cl)Cl` [Example 28, 2,2-dichloro-N-[[(5S)-3-[4-(2,3-dihydro-1,1-dioxido-4H-1,4-thiazin-4-yl)-3,5-difluorophenyl]-2-oxo-5-oxazolidinyl]methyl]acetamide] it is 0.5 µg/mL (≈ 1.06 µM); for `O=C(NC[C@H]1CN(c2cc(F)c(N3C=CS(=O)(=O)CC3)c(F)c2)C(=O)O1)C(F)F` [Example 29, N-[[(5S)-3-[4-(2,3-dihydro-1,1-dioxido-4H-1,4-thiazin-4-yl)-3,5-difluorophenyl]-2-oxo-5-oxazolidinyl]methyl]-2,2-difluoroacetamide] it is 0.5 µg/mL (≈ 1.14 µM). The figure for `O=C(NC[C@H]1CN(c2cc(F)c(C3C=CS(=O)(=O)CC3)c(F)c2)C(=O)O1)C(F)F` (stereo partly drawn) [Example 30, N-({(5S)-3-[4-(1,1-dioxido-3,4-dihydro-2H-thiopyran-4-yl)-3,5-difluorophenyl]-2-oxo-1,3-oxazolidin-5-yl}methyl)-2,2-difluoroacetamide] is 1 µg/mL (≈ 2.29 µM). On to `O=C(NC[C@H]1CN(c2cc(F)c(C3C=CS(=O)(=O)CC3)c(F)c2)C(=O)O1)C(Cl)Cl` (stereo partly drawn) [Example 31, 2,2-dichloro-N-({(5S)-3-[4-(1,1-dioxido-3,4-dihydro-2H-thiopyran-4-yl)-3,5-difluorophenyl]-2-oxo-1,3-oxazolidin-5-yl}methyl)acetamide], for which the MIC was determined as 0.5 µg/mL (≈ 1.07 µM).

Regarding `O=C1O[C@@H](CNC(=S)C(F)F)CN1c1cc(F)c(C2C=CS(=O)(=O)CC2)c(F)c1` (stereo partly drawn) [Example 32, N-({(5S)-3-[4-(1,1-dioxido-3,4-dihydro-2H-thiopyran-4-yl)-3,5-difluorophenyl]-2-oxo-1,3-oxazolidin-5-yl}methyl)-2,2-difluoroethanethioamide], the MIC came out at 0.5 µg/mL (≈ 1.11 µM).

For the origin of these results see patent publication US6884813B2, “Antimicrobial dihydrothiazine and dihydrothiopyran oxazolidinones” (Pharmacia & Upjohn Company, priority 2002, dated 2005).
